Legend:
MAGL = target: T1, MAGL (Mus musculus, UniProt O35678); assay: In vitro competitive activity-based protein profiling (mouse), MAGL gel band; assay type: biochemical; details: for IC50: mouse; for inhibition at 1 µM: read-out: MAGL % inh. 1 μM
T1 construct: Proteomes (mouse brain membrane fraction or cell lysates); from tissue; host or cells: mouse brain membrane fraction (or cell lysates)
T1 sequence (O35678 1-303): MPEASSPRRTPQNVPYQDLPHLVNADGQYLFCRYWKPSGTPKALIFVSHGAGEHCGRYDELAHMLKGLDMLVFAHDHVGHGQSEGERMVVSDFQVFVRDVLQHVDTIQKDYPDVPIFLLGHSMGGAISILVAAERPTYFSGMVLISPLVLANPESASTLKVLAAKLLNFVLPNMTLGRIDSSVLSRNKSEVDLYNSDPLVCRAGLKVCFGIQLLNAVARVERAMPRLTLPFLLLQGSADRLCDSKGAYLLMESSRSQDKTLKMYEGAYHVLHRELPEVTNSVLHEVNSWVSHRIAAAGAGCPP
Description: (§1) In Vitro Competitive Activity-Based Protein Profiling (Mouse).
(§2) Proteomes (mouse brain membrane fraction or cell lysates) (50 μL, 1.0 mg/mL total protein concentration) were preincubated with varying concentrations of inhibitors at 37° C. After 30 min, FP-Rh or HT-01 (1.0 μL, 50 μM in DMSO) was added and the mixture was incubated for another 30 min at 37° C. Reactions were quenched with SDS loading buffer (15 μL—4×) and run on SDS-PAGE. Following gel imaging, serine hydrolase activity was determined by measuring fluorescent intensity of gel bands corresponding to MAGL, ABHD6, and FAAH, using ImageJ 1.43u software.

FAAH = target: T2, FAAH (Mus musculus, UniProt O08914); assay: In vitro competitive activity-based protein profiling (mouse), FAAH gel band; assay type: biochemical; details: for IC50: mouse; for inhibition at 1 µM: read-out: FAAH % inh. 1 μM
T2 construct: Proteomes (mouse brain membrane fraction or cell lysates); from tissue; host or cells: mouse brain membrane fraction (or cell lysates)
T2 sequence (O08914 1-579): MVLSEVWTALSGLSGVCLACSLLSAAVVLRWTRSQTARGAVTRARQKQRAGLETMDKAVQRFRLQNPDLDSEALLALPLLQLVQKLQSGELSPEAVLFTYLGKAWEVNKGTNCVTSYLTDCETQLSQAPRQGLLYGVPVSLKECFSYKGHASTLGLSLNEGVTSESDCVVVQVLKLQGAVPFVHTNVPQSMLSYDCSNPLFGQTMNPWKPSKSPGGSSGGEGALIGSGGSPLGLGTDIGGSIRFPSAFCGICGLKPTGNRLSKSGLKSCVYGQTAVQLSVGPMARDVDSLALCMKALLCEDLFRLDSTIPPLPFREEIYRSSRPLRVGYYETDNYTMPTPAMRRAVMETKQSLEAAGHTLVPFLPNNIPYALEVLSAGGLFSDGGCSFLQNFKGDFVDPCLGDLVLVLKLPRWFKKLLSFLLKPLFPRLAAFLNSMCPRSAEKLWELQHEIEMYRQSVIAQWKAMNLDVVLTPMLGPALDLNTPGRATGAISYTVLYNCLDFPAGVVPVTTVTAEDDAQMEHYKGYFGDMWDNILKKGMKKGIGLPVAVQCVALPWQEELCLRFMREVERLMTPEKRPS
Description: as §1, §2

| Compound | IC50 (MAGL) [nM] | inhibition at 1 µM (MAGL) [%] | IC50 (FAAH) [nM] | inhibition at 1 µM (FAAH) [%] |
| --- | --- | --- | --- | --- |
| CC(=O)N(C)c1ccn(C(=O)N2CCN(Cc3ccc(C(F)(F)F)cc3N3CCCC3)CC2)n1 [Example 2, N-methyl-N-(1-(4-(2-(pyrrolidin-1-yl)-4-(trifluoromethyl)benzyl)piperazine-1-carbonyl)-1H-pyrazol-3-yl)acetamide] | 100 to 1000 | ≥ 75 | 1000 to 10000 | 0 to 25 |
| CC(=O)Nc1ccn(C(=O)N2CCN(Cc3ccc(C(F)(F)F)cc3N3CCN(CC(=O)O)CC3)CC2)n1 [Example 277, 2-(4-(2-((4-(3-acetamido-1H-pyrazole-1-carbonyl)piperazin-1-yl)methyl)-5-(trifluoromethyl)phenyl)piperazin-1-yl)acetic acid] | – | ≥ 75 | – | 0 to 25 |
| CC(=O)Nc1ccn(C(=O)N2CCC3(CCCN3Cc3ccc4[nH]cnc4c3)CC2)n1 [Example 253, N-(1-(1-((1H-benzo[d]imidazol-5-yl)methyl)-1,8-diazaspiro[4.5]decane-8-carbonyl)-1H-pyrazol-3-yl)acetamide] | – | 50 to 75 | – | 0 to 25 |
| CC(=O)Nc1ccn(C(=O)N2CCC3(CCCN3Cc3ccc4c(ccn4C)c3)CC2)n1 [Example 185, N-(1-(1-((1-methyl-1H-indol-5-yl)methyl)-1,8-diazaspiro[4.5]decane-8-carbonyl)-1H-pyrazol-3-yl)acetamide] | 1000 to 10000 | ≥ 75 | 1000 to 10000 | 0 to 25 |
| CS(=O)(=O)Nc1ccn(C(=O)N2CCN(Cc3ccc(C(F)(F)F)c(N4CCN(CC(=O)O)CC4)c3)CC2)n1 [Example 281, 2-(4-(5-((4-(3-(methylsulfonamido)-1H-pyrazole-1-carbonyl)piperazin-1-yl)methyl)-2-(trifluoromethyl)phenyl)piperazin-1-yl)acetic acid] | – | 0 to 25 | – | 0 to 25 |
| CC(=O)Nc1ccn(C(=O)N2CCC3(CCCN3Cc3ccc(C(F)(F)F)cc3N3CCCC3)CC2)n1 [Example 8, N-(1-(1-(2-(pyrrolidin-1-yl)-4-(trifluoromethyl)benzyl)-1,8-diazaspiro[4.5]decane-8-carbonyl)-1H-pyrazol-3-yl)acetamide] | ≤ 100 | ≥ 75 | 1000 to 10000 | 0 to 25 |
| CCN1CCN(c2cc(Cl)ccc2CN2CCCC23CCN(C(=O)n2ccc(NC(C)=O)n2)CC3)CC1 [Example 15, N-(1-(1-(4-chloro-2-(4-ethylpiperazin-1-yl)benzyl)-1,8-diazaspiro[4.5]decane-8-carbonyl)-1H-pyrazol-3-yl)acetamide] | 100 to 1000 | ≥ 75 | 1000 to 10000 | 0 to 25 |
| CS(=O)(=O)Nc1ccn(C(=O)N2CCC3(CCCN3Cc3ccc(C(F)(F)F)cc3N3CCOCC3)CC2)n1 [Example 126, N-(1-(1-(2-morpholino-4-(trifluoromethyl)benzyl)-1,8-diazaspiro[4.5]decane-8-carbonyl)-1H-pyrazol-3-yl)methanesulfonamide] | – | ≥ 75 | – | 0 to 25 |
| CS(=O)(=O)Nc1ccn(C(=O)N2CCN(Cc3cc(N4CCCC4)ccc3C(F)(F)F)CC2)n1 [Example 195, N-(1-(4-(5-(pyrrolidin-1-yl)-2-(trifluoromethyl)benzyl)piperazine-1-carbonyl)-1H-pyrazol-3-yl) methanesulfonamide] | – | ≥ 75 | – | 0 to 25 |
| CS(=O)(=O)Nc1ccn(C(=O)N2CCC3(CCCN3Cc3cc(N4CCC(C(=O)O)C4)cc(C(F)(F)F)c3)CC2)n1 (centres unmarked) [Example 247, 1-(3-((8-(3-(methylsulfonamido)-1H-pyrazole-1-carbonyl)-1,8-diazaspiro[4.5]decan-1-yl)methyl)-5-(trifluoromethyl)phenyl)pyrrolidine-3-carboxylic acid] | – | 0 to 25 | – | 0 to 25 |
| CC(=O)N(C)c1ccn(C(=O)N2CCC3(CCCN3Cc3cc(N4C5CCC4COC5)cc(C(F)(F)F)c3)CC2)n1 [Example 67, N-(1-(1-(3-(3-oxa-8-azabicyclo[3.2.1]octan-8-yl)-5-(trifluoromethyl)benzyl)-1,8-diazaspiro[4.5]decane-8-carbonyl)-1H-pyrazol-3-yl)-N-methylacetamide] | – | 0 to 25 | – | 0 to 25 |
| CS(=O)(=O)Nc1ccn(C(=O)N2CCN(Cc3ccc(N4CCOCC4)cc3C(F)(F)F)CC2)n1 [Example 157, N-(1-(4-(4-morpholino-2-(trifluoromethyl)benzyl)piperazine-1-carbonyl)-1H-pyrazol-3-yl) methanesulfonamide] | – | 25 to 50 | – | 0 to 25 |

Other lines, results leading:

| IC50 (MAGL) [nM] | inhibition at 1 µM (MAGL) [%] | IC50 (FAAH) [nM] | inhibition at 1 µM (FAAH) [%] | Compound |
| --- | --- | --- | --- | --- |
| – | 50 to 75 | – | 0 to 25 | CS(=O)(=O)Nc1ccn(C(=O)N2CCN(Cc3cc(C(F)(F)F)ccc3N3CCOCC3)CC2)n1 [Example 124, N-(1-(4-(2-morpholino-5-(trifluoromethyl)benzyl)piperazine-1-carbonyl)-1H-pyrazol-3-yl) methanesulfonamide] |
| 100 to 1000 | ≥ 75 | 1000 to 10000 | 0 to 25 | CC(=O)N(C)c1ccn(C(=O)N2CCN(Cc3cc(N4CCCC4)cc(C(F)(F)F)c3)CC2)n1 [Example 70, N-methyl-N-(1-(4-(3-(pyrrolidin-1-yl)-5-(trifluoromethyl)benzyl)piperazine-1-carbonyl)-1H-pyrazol-3-yl)acetamide] |
| ≤ 100 | ≥ 75 | 1000 to 10000 | 0 to 25 | CC(=O)Nc1ccn(C(=O)N2CCN(Cc3ccc(C(F)(F)F)cc3N3CCC(F)(F)CC3)CC2)n1 [Example 46, N-(1-(4-(2-(4,4-difluoropiperidin-1-yl)-4-(trifluoromethyl)benzyl)piperazine-1-carbonyl)-1H-pyrazol-3-yl)acetamide] |
| – | ≥ 75 | – | 0 to 25 | CS(=O)(=O)Nc1ccn(C(=O)N2CCN(Cc3cccc(C(F)(F)F)c3N3CCC(F)CC3)CC2)n1 [Example 273, N-(1-(4-(2-(4-fluoropiperidin-1-yl)-3-(trifluoromethyl)benzyl)piperazine-1-carbonyl)-1H-pyrazol-3-yl) methanesulfonamide] |
| 100 to 1000 | ≥ 75 | 100 to 1000 | ≥ 75 | Cc1cc(-c2ccccc2)ccc1CN1CCN(C(=O)n2ccc(NS(C)(=O)=O)n2)CC1 [Example 150, N-(1-(4-((3-methyl-[1,1′-biphenyl]-4-yl)methyl)piperazine-1-carbonyl)-1H-pyrazol-3-yl) methanesulfonamide] |
| 100 to 1000 | ≥ 75 | 1000 to 10000 | 0 to 25 | CC(=O)Nc1ccn(C(=O)N2CCC3(CCCN3Cc3ccc(C(F)(F)F)cc3N3CCN(C(C)=O)CC3)CC2)n1 [Example 22, N-(1-(1-(2-(4-acetylpiperazin-1-yl)-4-(trifluoromethyl)benzyl)-1,8-diazaspiro[4.5]decane-8-carbonyl)-1H-pyrazol-3-yl)acetamide] |
| – | ≥ 75 | – | 0 to 25 | CS(=O)(=O)Nc1ccn(C(=O)N2CCN(Cc3ccc(C(F)(F)F)c(N4CCN5CCC[C@@H]5C4)c3)CC2)n1 [Example 278, (R)-N-(1-(4-(3-(hexahydropyrrolo[1,2-a]pyrazin-2(1H)-yl)-4-(trifluoromethyl)benzyl)piperazine-1-carbonyl)-1H-pyrazol-3-yl) methanesulfonamide] |
| 100 to 1000 | ≥ 75 | 1000 to 10000 | 0 to 25 | CS(=O)(=O)Nc1ccn(C(=O)N2CCC3(CCCN3Cc3cccc(N4CCCCC4)c3Cl)CC2)n1 [Example 144, N-(1-(1-(2-chloro-3-(piperidin-1-yl)benzyl)-1,8-diazaspiro[4.5]decane-8-carbonyl)-1H-pyrazol-3-yl) methanesulfonamide] |
| – | ≥ 75 | – | 0 to 25 | CS(=O)(=O)Nc1ccn(C(=O)N2CCN(Cc3ccc(C(F)(F)F)c(Cl)c3)CC2)n1 [Example 154, N-(1-(4-(3-chloro-4-(trifluoromethyl)benzyl)piperazine-1-carbonyl)-1H-pyrazol-3-yl) methanesulfonamide] |
| – | ≥ 75 | – | 25 to 50 | CC(=O)Nc1ccn(C(=O)N2CCC3(CCCN3Cc3ccc(Cl)c(C(F)(F)F)c3)CC2)n1 [Example 25, N-(1-(1-(4-chloro-3-(trifluoromethyl)benzyl)-1,8-diazaspiro[4.5]decane-8-carbonyl)-1H-pyrazol-3-yl)acetamide] |

From patent publication US10519134B2, “Pyrazole compounds and methods of making and using same” (Lundbeck La Jolla Research Center, Inc., priority 2015, dated 2019)
